Test results: PMC6661771, “Indole hybridized diazenyl derivatives: synthesis, antimicrobial activity, cytotoxicity evaluation and docking studies” (BMC Chemistry, 2019)
≈ marks a conversion by molar mass, not a printed value. Like-named read-outs stand apart in the source and are kept apart here.

Tests used:
E. coli [1] = assay: Minimum bactericidal concentration (MBC); format: cell-based; conditions: Escherichia coli
B. subtilis [2] = assay: MIC by tube dilution method; format: cell-based; conditions: Bacillus subtilis, 24 h at 37 °C, read-out: MIC
K. pneumonia [3] = assay: Minimum bactericidal concentration (MBC); format: cell-based; conditions: Klebsiella pneumoniae
B. subtilis [4] = assay: Minimum bactericidal concentration (MBC); format: cell-based; conditions: Bacillus subtilis
S. enterica [5] = assay: MIC by tube dilution method; format: cell-based; conditions: Salmonella enterica, 24 h, 24 h at 37 °C, read-out: MIC
K. pneumonia [6] = assay: MIC by tube dilution method; format: cell-based; conditions: Klebsiella pneumoniae, 24 h, 24 h at 37 °C, read-out: MIC
S. aureus [7] = assay: Minimum bactericidal concentration (MBC); format: cell-based; conditions: Staphylococcus aureus
E. coli [8] = assay: MIC by tube dilution method; format: cell-based; conditions: Escherichia coli, 24 h, 24 h at 37 °C, read-out: MIC
S. aureus [9] = assay: MIC by tube dilution method; format: cell-based; conditions: Staphylococcus aureus, 24 h at 37 °C, read-out: MIC
S. enterica [10] = assay: Minimum bactericidal concentration (MBC); format: cell-based; conditions: Salmonella enterica, read-out: MBC/MFC
Protocol: After MIC assessment, the indole derivatives (DS1–DS21), were additionally evaluated for MBC and MFC values. […] The 10–15 ml of nutrient agar and Sabouraud dextrose agar was added to the petri plates for bacterial and fungal samples respectively with gentle shaking of plates in order to mix the culture throughout the media. Allowed the media to solidify. The petri plates were then incubated for the predefined time and temperature as referenced already for bacterial and fungal cultures respectively. The plates were then investigated visually for the development of microbial growth. The MBC and MFC were stated as the minimum concentration of the compounds in aliquots showing no visual growth after incubation.

A. fumigatus [11] = assay: Minimum fungicidal concentration (MFC); format: cell-based; conditions: Aspergillus fumigatus, read-out: MBC/MFC
A. niger [12] = assay: Minimum fungicidal concentration (MFC); format: cell-based; conditions: Aspergillus niger, read-out: MBC/MFC
A. fumigatus [13] = assay: MIC by tube dilution method; format: cell-based; conditions: Aspergillus fumigatus, 168 h, 7 days at 25 °C, read-out: MIC
A. niger [14] = assay: MIC by tube dilution method; format: cell-based; conditions: Aspergillus niger, 168 h, 7 days at 25 °C, read-out: MIC

Structure (SMILES): O=C(O)c1cn(C2CC2)c2cc(N3CCNCC3)c(F)cc2c1=O [CPR, ciprofloxacin, reference compound]
- MBC (E. coli [1]): 31.2 µg/mL (≈ 94.3 µM)
- MIC (B. subtilis [2]): 7.81 µg/mL (≈ 23.6 µM)
- MBC (K. pneumonia [3]): 7.81 µg/mL (≈ 23.6 µM)
- MBC (B. subtilis [4]): 31.2 µg/mL (≈ 94.3 µM)
- MIC (S. enterica [5]): 15.6 µg/mL (≈ 47.1 µM)
- MIC (K. pneumonia [6]): 7.81 µg/mL (≈ 23.6 µM)
- MBC (S. aureus [7]): 62.5 µg/mL (≈ 189 µM)
- MIC (E. coli [8]): 3.9 µg/mL (≈ 11.8 µM)
- MIC (S. aureus [9]): 1.95 µg/mL (≈ 5.89 µM)
- MBC (S. enterica [10]; S. enterica, MBC): 31.2 µg/mL (≈ 94.3 µM)

Structure (SMILES): C/C(=N/c1ccc(Cl)cc1[N+](=O)[O-])c1ccc(/N=N\c2c[nH]c3ccccc23)cc1 [DS-13, (Z)-N-(1-(4-((Z)-(1H-Indol-3-yl)diazenyl)phenyl)ethylidene)-4-chloro-2-nitroaniline]
- MBC (E. coli [1]): 3.9 to 7.81 µg/mL (≈ 9.33 to 18.7 µM)
- MFC (A. fumigatus [11]): 125 µg/mL (≈ 299 µM)
- MIC (B. subtilis [2]): 62.5 µg/mL (≈ 150 µM)
- MBC (K. pneumonia [3]): 15.6 µg/mL (≈ 37.4 µM)
- MBC (B. subtilis [4]): 125 µg/mL (≈ 299 µM)
- MIC (S. enterica [5]): 62.5 µg/mL (≈ 150 µM)
- MFC (A. niger [12]): 125 µg/mL (≈ 299 µM)
- MIC (A. fumigatus [13]): 31.2 µg/mL (≈ 74.8 µM)
- MIC (K. pneumonia [6]): 3.9 µg/mL (≈ 9.33 µM)
- MBC (S. aureus [7]): 62.5 µg/mL (≈ 150 µM)
- MIC (A. niger [14]): 62.5 µg/mL (≈ 150 µM)
- MIC (E. coli [8]): 7.81 µg/mL (≈ 18.7 µM)
- MIC (S. aureus [9]): 62.5 µg/mL (≈ 150 µM)
- MBC (S. enterica [10]): 62.5 µg/mL (≈ 150 µM)

Structure (SMILES): C/C(=N/c1nnc(-c2ccc([N+](=O)[O-])cc2)s1)c1ccc(/N=N\c2c[nH]c3ccc([N+](=O)[O-])cc23)cc1 [DS-5, (Z)-N-(1-(4-((Z)-(5-Nitro-1H-indol-3-yl)diazenyl)phenyl)ethylidene)-5-(4-nitrophenyl)-1,3,4-thiadiazol-2-amine]
- MBC (E. coli [1]): 31.2 µg/mL (≈ 61 µM)
- MFC (A. fumigatus [11]): 125 µg/mL (≈ 244 µM)
- MIC (B. subtilis [2]): 62.5 µg/mL (≈ 122 µM)
- MBC (K. pneumonia [3]): 15.6 µg/mL (≈ 30.5 µM)
- MBC (B. subtilis [4]): 125 µg/mL (≈ 244 µM)
- MIC (S. enterica [5]): 31.2 µg/mL (≈ 61 µM)
- MFC (A. niger [12]): 125 µg/mL (≈ 244 µM)
- MIC (A. fumigatus [13]): 125 µg/mL (≈ 244 µM)
- melting point: 160 to 165 °C
- MIC (K. pneumonia [6]): 3.9 µg/mL (≈ 7.61 µM)
- MBC (S. aureus [7]): 125 µg/mL (≈ 244 µM)
- MIC (A. niger [14]): 62.5 µg/mL (≈ 122 µM)
- MIC (E. coli [8]): 1.95 µg/mL (≈ 3.8 µM)
- MIC (S. aureus [9]): 125 µg/mL (≈ 244 µM)
- MBC (S. enterica [10]; S. enterica, MBC): 62.5 µg/mL (≈ 122 µM)

Structure (SMILES): C/C(=N/c1ccc(S(=O)(=O)Nc2ccccn2)cc1)c1ccc(/N=N\c2c[nH]c3ccccc23)cc1 [DS-11, 4-((Z)-(1-(4-((Z)-(1H-Indol-3-yl)diazenyl)phenyl)ethylidene)amino)-N-(pyridin-2-yl)benzenesulfonamide]
- MBC (E. coli [1]): 62.5 µg/mL (≈ 126 µM)
- MFC (A. fumigatus [11]): 125 µg/mL (≈ 253 µM)
- MIC (B. subtilis [2]): 31.2 µg/mL (≈ 63.2 µM)
- MBC (K. pneumonia [3]): 31.2 µg/mL (≈ 63.2 µM)
- MBC (B. subtilis [4]): 125 µg/mL (≈ 253 µM)
- MIC (S. enterica [5]): 62.5 µg/mL (≈ 126 µM)
- MFC (A. niger [12]): 125 µg/mL (≈ 253 µM)
- MIC (A. fumigatus [13]): 62.5 µg/mL (≈ 126 µM)
- melting point: 135 to 140 °C
- MIC (K. pneumonia [6]): 15.6 µg/mL (≈ 31.6 µM)
- MBC (S. aureus [7]): 62.5 µg/mL (≈ 126 µM)
- MIC (A. niger [14]): 125 µg/mL (≈ 253 µM)
- MIC (E. coli [8]): 3.9 µg/mL (≈ 7.89 µM)
- MIC (S. aureus [9]): 31.2 µg/mL (≈ 63.2 µM)
- MBC (S. enterica [10]; S. enterica, MBC): 125 µg/mL (≈ 253 µM)

Structure (SMILES): C/C(=N\Cc1ccco1)c1ccc(/N=N/c2c[nH]c3ccccc23)cc1 [DS-1, (E)-N-(2-Furylmethyl)-1-[4-[(E)-1H-indol-3-ylazo]phenyl]ethanimine]
- MBC (E. coli [1]): 125 µg/mL (≈ 365 µM)
- MFC (A. fumigatus [11]): 125 µg/mL (≈ 365 µM)
- MIC (B. subtilis [2]): 62.5 µg/mL (≈ 183 µM)
- MBC (B. subtilis [4]): 125 µg/mL (≈ 365 µM)
- MIC (S. enterica [5]): 62.5 µg/mL (≈ 183 µM)
- MFC (A. niger [12]): 125 µg/mL (≈ 365 µM)
- MIC (A. fumigatus [13]): 62.5 µg/mL (≈ 183 µM)
- melting point: 315 to 320 °C
- MIC (K. pneumonia [6]): 3.9 µg/mL (≈ 11.4 µM)
- MBC (S. aureus [7]): 125 µg/mL (≈ 365 µM)
- MIC (A. niger [14]): 125 µg/mL (≈ 365 µM)
- MIC (E. coli [8]): 15.6 µg/mL (≈ 45.6 µM)
- MIC (S. aureus [9]): 62.5 µg/mL (≈ 183 µM)
- MBC (S. enterica [10]; S. enterica, MBC): 62.5 µg/mL (≈ 183 µM)

Structure (SMILES): CO/N=C(\C(=O)N[C@@H]1C(=O)N2C(C(=O)O)=C(COC(C)=O)CS[C@H]12)c1csc(N)n1 [CFT, cefotaxime, reference compound]
- MBC (E. coli [1]): 15.6 µg/mL (≈ 34.3 µM)
- MIC (B. subtilis [2]): 15.6 µg/mL (≈ 34.3 µM)
- MBC (K. pneumonia [3]): 3.9 µg/mL (≈ 8.56 µM)
- MBC (B. subtilis [4]): 15.6 µg/mL (≈ 34.3 µM)
- MIC (S. enterica [5]): 15.6 µg/mL (≈ 34.3 µM)
- MIC (K. pneumonia [6]): 1.95 µg/mL (≈ 4.28 µM)
- MBC (S. aureus [7]): 31.2 µg/mL (≈ 68.6 µM)
- MIC (E. coli [8]): 1.95 µg/mL (≈ 4.28 µM)
- MIC (S. aureus [9]): 15.6 µg/mL (≈ 34.3 µM)
- MBC (S. enterica [10]; S. enterica, MBC): 31.2 µg/mL (≈ 68.6 µM)
